These are literature values, as cited in US4988517A, “Method and composition for inhibiting colon carcinogenesis” (American Health Foundation, priority 1988, dated 1991).

Series [1] concerns azoxymethane ("AOM")-induced colon, kidney, and hepatocarcinogenesis. The settings on record: 50 ppm in semipurified high fat diet, 2 wk before, during, 1 wk after carcinogen, liver; cited from earlier work.
Series [2] concerns benzo(a) pyrene-induced forestomach tumors. To be noted: mice; cited from earlier work.
For series [3] the following is noted: 6 ppm selenium in the form of selenomethionine; cited from earlier work.
The conditions of series [4]: rat, in vivo; cited from earlier work.
Series [5] deals with colon carcinogenesis. The settings on record: initiation phase; cited from earlier work.
Series [6] concerns cancer induced by a variety of chemical carcinogens. To be noted: diet or drinking water; colon, mammary gland, pancreas; cited from earlier work.

Regarding `COc1ccc([SeH])cc1` [MBS, p-methoxybenzenenselenol, reference compound], in series [1], the “Inhibition of AOM-induced carcinogenesis” value is “inhibited azoxymethane ("AOM")-induced colon, kidney, and hepatocarcinogenesis in rats”. In addition, the “Inhibition of benzo(a)pyrene-induced forestomach tumors” value in series [2] is recorded as “effective inhibitors of benzo(a) pyrene-induced forestomach tumors in mice”.

Turning to `C[Se]CC[C@H](N)C(=O)O` [selenomethionine], the Liver damage result in series [3] was “caused liver damage as indicated by extensive necrosis and fibrosis”.

For the molecule `O=[Se](O)O` [sodium selenite], the “Toxicity relative to BSC” value in series [4] is on record as “more toxic than BSC”. The “Inhibition of colon carcinogenesis” value in series [5] is reported as “does not inhibit colon carcinogenesis during the initiation phase”. In addition, the “Protection against cancer induction” value in series [6] is listed as “protects against cancer induced by a variety of chemical carcinogens”.
